ChEMBL document CHEMBL6087448, “Eradication of Therapy-Resistant Cancer Stem Cells by Novel Telmisartan Derivatives” (J Med Chem, 2025)
Calls of active or inactive are those of the source. The rule behind the calls is not given here.

Columns and labels:
COS-7 = experiment: Cytotoxicity against African green monkey COS-7 cells assessed as reduction in metabolic activity at 10 uM incubated for 72 hrs by MTT assay; type: toxicity, cell-based; settings: chlorocebus aethiops, cos-7, 72 h
K-562R [1] = experiment: Sensitization of imatinib-induced cytotoxicity against human K562-r cells assessed as cell viability at 10 uM measured after 72 hrs by MTT assay relative to control; type: functional; settings: read-out: Activity
K-562R [2] = experiment: Sensitization of imatinib-induced cytotoxicity against human K562-r cells assessed as metabolic activity at 8 uM measured after 72 hrs by MTT assay relative to control; type: functional
K-562R [3] = experiment: Effect on ABCB1 protein expression in human K562-r cells at 4 uM incubated for 72 hrs by Western blotting based immunoassay; type: functional, cell-based
K562-r [4] = experiment: Effect on STAT5 phosphorylation in human K562-r cells at 4 uM measured after 6 hrs by Western blotting based immunoassay; type: cell-based
K562-r [5] = experiment: Inhibition of STAT5 phosphorylation in human K562-r cells at 4 uM measured after 72 hrs by Western blotting based immunoassay; type: cell-based
K562-r [6] = experiment: Effect on STAT5 phosphorylation in human K562-r cells at 4 uM measured after 6 hrs in presence of imatinib by Western blotting based immunoassay; type: cell-based
K-562R [7] = experiment: Inhibition of side population phenotype in human K562-r cells at 10 uM incubated for 90 mins by DCV staining based flow cytometric analysis relative to control; type: functional
K-562R [8] = experiment: Sensitization of imatinib-induced cytotoxicity against human K562-r cells assessed as reduction in metabolic activity at 10 uM measured after 72 hrs by MTT assay; type: functional, cell-based
K-562R [9] = experiment: Sensitization of imatinib-induced cytotoxicity against human K562-r cells assessed as reduction in metabolic activity at 0.5 to 6 uM measured after 72 hrs by MTT assay; type: functional, cell-based; settings: dose 0.5-6 µM
K562 = experiment: Cytotoxicity against human K562 cells assessed as reduction in metabolic activity at 10 uM measured after 72 hrs by MTT assay; type: functional, cell-based
K-562R [10] = experiment: Cytotoxicity against human K562-r cells assessed as reduction in metabolic activity; type: functional, cell-based
K562-r [11] = experiment: Inhibition of STAT5 phosphorylation in human K562-r cells at 4 uM measured after 6 hrs in presence of imatinib by Western blotting based immunoassay; type: cell-based
MCF7 [12] = experiment: Inhibition of side population phenotype in human MCF7 cells expressing ABCG2 at 10 uM incubated for 90 mins by DCV staining based flow cytometric analysis; type: functional, cell-based
A549 [13] = experiment: Inhibition of side population phenotype in human A549 cells expressing ABCC1 at 10 uM incubated for 90 mins by DCV staining based flow cytometric analysis; type: functional, cell-based
A2780/Taxol [14] = experiment: Inhibition of side population phenotype in human Paclitaxel-resistant A2780 cells expressing ABCB1 at 10 uM incubated for 90 mins by DCV staining based flow cytometric analysis; type: functional, cell-based
[15] = system: Paclitaxel-resistant IGROV-1 cell; experiment: Inhibition of side population phenotype in human Paclitaxel-resistant IGROV-1 cells expressing ABCB1 at 10 uM incubated for 90 mins by DCV staining based flow cytometric analysis; type: functional
[16] = system: Docetaxel-resistant PC-3 cell; experiment: Inhibition of side population phenotype in human Docetaxel-resistant PC-3 cell expressing ABCB1 at 10 uM incubated for 90 mins by DCV staining based flow cytometric analysis; type: functional
[17] = system: Docetaxel-resistant DU145 cell; experiment: Inhibition of side population phenotype in human Docetaxel-resistant DU145 cell expressing ABCB1 at 10 uM incubated for 90 mins by DCV staining based flow cytometric analysis; type: functional
[18] = system: Paclitaxel-resistant A2780; experiment: Inhibition of STAT5 phosphorylation in human Paclitaxel-resistant A2780 cells expressing ABCB1 at 10 uM incubated for 72 hrs by Western blotting based immunoassay; type: cell-based
[19] = system: Paclitaxel-resistant IGROV-1 cell; experiment: Inhibition of STAT5 phosphorylation in human Paclitaxel-resistant IGROV-1 cells expressing ABCB1 at 10 uM incubated for 72 hrs by Western blotting based immunoassay
MCF7 [20] = experiment: Inhibition of STAT5 phosphorylation in human MCF7 cells at 10 uM incubated for 72 hrs by Western blotting based immunoassay; type: cell-based
A549 [21] = experiment: Inhibition of STAT5 phosphorylation in human A549 cells at 10 uM incubated for 72 hrs by Western blotting based immunoassay; type: cell-based
A2780/Taxol [22] = experiment: Effect on STAT5 protein expression in human Paclitaxel-resistant A2780 cells expressing ABCB1 at 10 uM incubated for 72 hrs by Western blotting based immunoassay; type: functional, cell-based
MCF7 [23] = experiment: Effect on STAT5 protein expression in human MCF7 cells at 10 uM incubated for 72 hrs by Western blotting based immunoassay; type: functional, cell-based
A549 [24] = experiment: Effect on STAT5 protein expression in human A549 cells at 10 uM incubated for 72 hrs by Western blotting based immunoassay; type: functional, cell-based
[25] = system: Paclitaxel-resistant IGROV-1 cell; experiment: Downregulation of STAT5 protein expression in human Paclitaxel-resistant IGROV-1 cells expressing ABCB1 at 10 uM incubated for 72 hrs by Western blotting based immunoassay; type: functional
A2780/Taxol [26] = experiment: Sensitization of paclitaxel-induced cytotoxicity against human Paclitaxel-resistant A2780 cells assessed as reduction in metabolic activity at 10 uM measured after 72 hrs by MTT assay; type: functional, cell-based
[27] = system: Paclitaxel-resistant IGROV-1 cell; experiment: Enhancement of paclitaxel-induced anti-metabolic activity in human Paclitaxel-resistant IGROV-1 cells assessed as reduction in metabolic activity upto 300 nM measured after 72 hrs by MTT assay; type: functional, cell-based
[28] = system: Docetaxel-resistant PC-3 cell; experiment: Enhancement of docetaxel-induced anti-metabolic activity against human Docetaxel-resistant PC-3 cell assessed as reduction in metabolic activity at 10 uM measured after 72 hrs by MTT assay; type: functional, cell-based
[29] = system: Docetaxel-resistant DU145 cell; experiment: Enhancement of docetaxel-induced anti-metabolic activity against human Docetaxel-resistant DU145 cell assessed as reduction in metabolic activity at 10 uM measured after 72 hrs by MTT assay; type: functional, cell-based
K-562R [30] = experiment: Cytotoxicity against human K562-r cells assessed as cell viability at 10 uM incubated for 72 hrs by MTT assay relative to control; type: functional; settings: read-out: Activity
K562-r [31] = experiment: Effect on STAT5 phosphorylation in human K562-r cells at 4 uM measured after 72 hrs by Western blotting based immunoassay; type: cell-based
K-562R [32] = experiment: Inhibition of side population phenotype in human K562-r cells at 0.1 uM incubated for 90 mins by DCV staining based flow cytometric analysis; type: functional, cell-based

## CCCc1nc2ccccc2n1Cc1ccccc1C(=O)OC
COS-7
  Activity: Non-toxic
K-562R [1]
  viability at 10 µM: 34%
K-562R [2]
  Activity: 44%
K-562R [3]
  Activity: inactive
K562-r [4]
  Activity: inactive
K562-r [5]
  inhibition: Active; Lesser Effect Observed
K562-r [6]
  Activity: inactive
K-562R [7]
  inhibition: inactive

## CCCc1nc2ccccc2n1Cc1ccc(-c2cccc(C(=O)O)c2)cc1
COS-7
  Activity: Non-toxic
K-562R [8]
  Activity: inactive

## COc1ccc(CCN(C)CCCC(C#N)(c2ccc(OC)c(OC)c2)C(C)C)cc1OC (configuration not stated)
K-562R [9]
  Activity: Active
K562
  Activity: inactive
K-562R [10]
  Activity: inactive

## CCCc1nc2ccccc2n1Cc1ccccc1C(=O)O
COS-7
  Activity: Non-toxic
K-562R [8]
  Activity: inactive

## CCCc1nc2ccccc2n1Cc1ccc(-c2ccc(C(N)=O)cc2)cc1
COS-7
  Activity: Non-toxic
K-562R [3]
  Activity: inactive
K562-r [4]
  Activity: inactive
K562-r [5]
  inhibition: Active
K562-r [11]
  inhibition: Active
K-562R [7]
  inhibition: Active
MCF7 [12]
  inhibition: inactive
A549 [13]
  inhibition: inactive
A2780/Taxol [14]
  inhibition: Active
[15]
  inhibition: Active
[16]
  inhibition: Active
[17]
  inhibition: Active
[18]
  inhibition: Active
[19]
  inhibition: Active
MCF7 [20]
  inhibition: Active
A549 [21]
  inhibition: Active
A2780/Taxol [22]
  Activity: inactive
MCF7 [23]
  Activity: inactive
A549 [24]
  Activity: inactive
[25]
  Activity: Active
A2780/Taxol [26]
  Activity: Active
[27]
  Activity: Active
[28]
  Activity: Active
[29]
  Activity: Active

## CCCc1nc2ccccc2n1Cc1ccc(C(N)=O)cc1
COS-7
  Activity: Non-toxic
K-562R [8]
  Activity: inactive

## CCCc1nc2ccccc2n1Cc1cccc(C(N)=O)c1
COS-7
  Activity: Non-toxic
K-562R [8]
  Activity: inactive

## CCCc1nc2ccccc2n1Cc1ccc(-c2ccccc2C(=O)OC)cc1
COS-7
  Activity: Non-toxic
K-562R [3]
  Activity: inactive
K562-r [4]
  Activity: inactive
K562-r [5]
  inhibition: Active; Lesser Effect Observed
K562-r [6]
  Activity: inactive
K-562R [7]
  inhibition: Active

## CCCc1nc2ccccc2n1Cc1ccc(C(=O)OC)cc1
COS-7
  Activity: Non-toxic
K-562R [1]
  viability at 10 µM: 34%
K-562R [2]
  Activity: 44%
K-562R [7]
  inhibition: inactive

## CCCc1nc2ccccc2n1Cc1cccc(C(=O)O)c1
COS-7
  Activity: Non-toxic
K-562R [8]
  Activity: inactive

## CCCc1nc2ccccc2n1Cc1ccccc1C(N)=O
COS-7
  Activity: Non-toxic
K-562R [30]
  viability at 10 µM: ~75%
K-562R [8]
  Activity: inactive

## CCCc1nc2ccccc2n1Cc1cccc(C(=O)OC)c1
COS-7
  Activity: Non-toxic
K-562R [1]
  viability at 10 µM: 34%
K-562R [2]
  Activity: 44%
K-562R [7]
  inhibition: inactive

## CCCc1nc2ccccc2n1Cc1ccc(C(=O)O)cc1
COS-7
  Activity: Non-toxic
K-562R [8]
  Activity: inactive

## CCCc1nc2ccccc2n1Cc1ccc(-c2ccc(C(=O)OC)cc2)cc1
COS-7
  Activity: Non-toxic
K-562R [30]
  viability at 10 µM: ~75%
K-562R [3]
  Activity: inactive
K562-r [4]
  Activity: inactive
K562-r [5]
  inhibition: Active
K562-r [11]
  inhibition: Active
K-562R [7]
  inhibition: Active

## CCCc1nc2ccccc2n1Cc1ccc(-c2ccccc2C(=O)O)cc1
COS-7
  Activity: Non-toxic
K-562R [8]
  Activity: inactive

## COc1cc2c(cc1OC)CN(CCc1ccc(NC(=O)c3cccc4c(=O)c5cccc(OC)c5[nH]c34)cc1)CC2
K-562R [9]
  Activity: Active
K562
  Activity: inactive
K-562R [10]
  Activity: inactive
K562-r [4]
  Activity: inactive
K562-r [31]
  Activity: inactive
K562-r [6]
  Activity: inactive
K-562R [32]
  inhibition: Active

## CCCc1nc2ccccc2n1Cc1ccc(-c2ccccc2C(N)=O)cc1
COS-7
  Activity: Non-toxic

## CCCc1nc2ccccc2n1Cc1ccc(-c2ccc(C(=O)O)cc2)cc1
COS-7
  Activity: Non-toxic
K-562R [8]
  Activity: inactive

## C/C=C/C[C@@H](C)C(=O)[C@H]1C(=O)N[C@@H](C(C)C)C(=O)N(C)CC(=O)N(C)[C@@H](CC(C)C)C(=O)N[C@@H](C(C)C)C(=O)N(C)[C@@H](CC(C)C)C(=O)N[C@@H](C)C(=O)N[C@H](C)C(=O)N(C)[C@@H](CC(C)C)C(=O)N(C)[C@@H](CC(C)C)C(=O)N(C)[C@@H](C(C)C)C(=O)N1C
K-562R [9]
  Activity: Active
K562
  Activity: inactive
K-562R [10]
  Activity: inactive

## CCCc1nc2ccccc2n1Cc1ccc(-c2cccc(C(=O)OC)c2)cc1
COS-7
  Activity: Non-toxic
K-562R [1]
  viability at 10 µM: 34%

## CCCc1nc2ccccc2n1Cc1ccc(-c2cccc(C(N)=O)c2)cc1
COS-7
  Activity: Non-toxic
K-562R [3]
  Activity: inactive
K562-r [4]
  Activity: inactive
K562-r [5]
  inhibition: Active; Lesser Effect Observed
K562-r [11]
  inhibition: Active
K-562R [7]
  inhibition: Active
MCF7 [12]
  inhibition: inactive
A549 [13]
  inhibition: inactive
A2780/Taxol [14]
  inhibition: Active
[15]
  inhibition: Active
[16]
  inhibition: Active
[17]
  inhibition: Active
[18]
  inhibition: Active
[19]
  inhibition: Active
MCF7 [20]
  inhibition: Active
A549 [21]
  inhibition: Active
A2780/Taxol [22]
  Activity: inactive
MCF7 [23]
  Activity: inactive
A549 [24]
  Activity: inactive
[25]
  Activity: Active
A2780/Taxol [26]
  Activity: Active
[27]
  Activity: Active
[28]
  Activity: Active
[29]
  Activity: Active
